Reference: PubChem BioAssay AID1259407 (Chemical Carcinogenesis Research Information System (CCRIS), 2018)
The source made the active and inactive calls. The rule behind the calls is not given here.

Test system: CCRIS mutagenicity, Ames/micronucleus/aberration tests
Experiment: CCRIS mutagenicity studies

Measured: mutagenic call

C[C@](N)(Cc1ccc(O)c(O)c1)C(=O)O
inactive: End Point: IN VITRO CHROMOSOMAL ABERRATIONS, Test System: CHO CELLS, Metabolic Activation: NONE inactive; negative | End Point: IN VITRO CHROMOSOMAL ABERRATIONS, Test System: CHO CELLS, Metabolic Activation: RAT, LIVER, S-9, AROCLOR 1254 inactive; negative; testing limited by solubility of the chemical | Test System: AMES SALMONELLA TYPHIMURIUM, Strain/Indicator: TA97, Metabolic Activation: HAMSTER, LIVER, S-9, AROCLOR 1254 (10 OR 30%), Method: PREINCUBATION inactive; negative | Test System: AMES SALMONELLA TYPHIMURIUM, Strain/Indicator: TA97, Metabolic Activation: HAMSTER, LIVER, S-9, AROCLOR 1254, Method: PREINCUBATION inactive; negative | Test System: AMES SALMONELLA TYPHIMURIUM, Strain/Indicator: TA97, Metabolic Activation: NONE, Method: PREINCUBATION inactive; negative | Test System: AMES SALMONELLA TYPHIMURIUM, Strain/Indicator: TA97, Metabolic Activation: RAT, LIVER, S-9, AROCLOR 1254 (10 OR 30%), Method: PREINCUBATION inactive; negative | Test System: AMES SALMONELLA TYPHIMURIUM, Strain/Indicator: TA97, Metabolic Activation: RAT, LIVER, S-9, AROCLOR 1254, Method: PREINCUBATION inactive; negative | Test System: AMES SALMONELLA TYPHIMURIUM, Strain/Indicator: TA98, Metabolic Activation: HAMSTER, LIVER, S-9, AROCLOR 1254 (10%), Method: PREINCUBATION inactive; negative | Test System: AMES SALMONELLA TYPHIMURIUM, Strain/Indicator: TA98, Metabolic Activation: HAMSTER, LIVER, S-9, AROCLOR 1254 (30%), Method: PREINCUBATION inactive; negative | Test System: AMES SALMONELLA TYPHIMURIUM, Strain/Indicator: TA98, Metabolic Activation: HAMSTER, LIVER, S-9, AROCLOR 1254, Method: PREINCUBATION inactive; negative | Test System: AMES SALMONELLA TYPHIMURIUM, Strain/Indicator: TA98, Metabolic Activation: NONE, Method: PREINCUBATION inactive; negative | Test System: AMES SALMONELLA TYPHIMURIUM, Strain/Indicator: TA98, Metabolic Activation: RAT, LIVER, S-9, AROCLOR 1254 (10%), Method: PREINCUBATION inactive; negative | Test System: AMES SALMONELLA TYPHIMURIUM, Strain/Indicator: TA98, Metabolic Activation: RAT, LIVER, S-9, AROCLOR 1254 (30%), Method: PREINCUBATION inactive; negative | Test System: AMES SALMONELLA TYPHIMURIUM, Strain/Indicator: TA98, Metabolic Activation: RAT, LIVER, S-9, AROCLOR 1254, Method: PREINCUBATION inactive; negative | Test System: AMES SALMONELLA TYPHIMURIUM, Strain/Indicator: TA100, Metabolic Activation: HAMSTER, LIVER, S-9, AROCLOR 1254 (10%), Method: PREINCUBATION inactive; negative | Test System: AMES SALMONELLA TYPHIMURIUM, Strain/Indicator: TA100, Metabolic Activation: HAMSTER, LIVER, S-9, AROCLOR 1254 (30%), Method: PREINCUBATION inactive; negative | Test System: AMES SALMONELLA TYPHIMURIUM, Strain/Indicator: TA100, Metabolic Activation: HAMSTER, LIVER, S-9, AROCLOR 1254, Method: PREINCUBATION inactive; negative | Test System: AMES SALMONELLA TYPHIMURIUM, Strain/Indicator: TA100, Metabolic Activation: NONE, Method: PREINCUBATION inactive; negative | Test System: AMES SALMONELLA TYPHIMURIUM, Strain/Indicator: TA100, Metabolic Activation: RAT, LIVER, S-9, AROCLOR 1254 (10%), Method: PREINCUBATION inactive; negative | Test System: AMES SALMONELLA TYPHIMURIUM, Strain/Indicator: TA100, Metabolic Activation: RAT, LIVER, S-9, AROCLOR 1254 (30%), Method: PREINCUBATION inactive; negative | Test System: AMES SALMONELLA TYPHIMURIUM, Strain/Indicator: TA100, Metabolic Activation: RAT, LIVER, S-9, AROCLOR 1254, Method: PREINCUBATION inactive; negative | Test System: AMES SALMONELLA TYPHIMURIUM, Strain/Indicator: TA1535, Metabolic Activation: HAMSTER, LIVER, S-9, AROCLOR 1254 (10%), Method: PREINCUBATION inactive; negative | Test System: AMES SALMONELLA TYPHIMURIUM, Strain/Indicator: TA1535, Metabolic Activation: HAMSTER, LIVER, S-9, AROCLOR 1254 (30%), Method: PREINCUBATION inactive; negative | Test System: AMES SALMONELLA TYPHIMURIUM, Strain/Indicator: TA1535, Metabolic Activation: HAMSTER, LIVER, S-9, AROCLOR 1254, Method: PREINCUBATION inactive; negative | Test System: AMES SALMONELLA TYPHIMURIUM, Strain/Indicator: TA1535, Metabolic Activation: NONE, Method: PREINCUBATION inactive; negative | Test System: AMES SALMONELLA TYPHIMURIUM, Strain/Indicator: TA1535, Metabolic Activation: RAT, LIVER, S-9, AROCLOR 1254 (10%), Method: PREINCUBATION inactive; negative | Test System: AMES SALMONELLA TYPHIMURIUM, Strain/Indicator: TA1535, Metabolic Activation: RAT, LIVER, S-9, AROCLOR 1254 (30%), Method: PREINCUBATION inactive; negative | Test System: AMES SALMONELLA TYPHIMURIUM, Strain/Indicator: TA1535, Metabolic Activation: RAT, LIVER, S-9, AROCLOR 1254, Method: PREINCUBATION inactive; negative

Cc1ccc2nc(-c3ccc(N)cc3)sc2c1
active: Test System: AMES SALMONELLA TYPHIMURIUM, Strain/Indicator: TA98, Metabolic Activation: HAMSTER, LIVER, S-9, AROCLOR 1254, Method: STANDARD PLATE active; positive | Test System: AMES SALMONELLA TYPHIMURIUM, Strain/Indicator: TA98, Metabolic Activation: RAT, LIVER, S-9, AROCLOR 1254, Method: STANDARD PLATE active; positive | Test System: AMES SALMONELLA TYPHIMURIUM, Strain/Indicator: TA100, Metabolic Activation: HAMSTER, LIVER, S-9, AROCLOR 1254, Method: STANDARD PLATE active; positive | Test System: AMES SALMONELLA TYPHIMURIUM, Strain/Indicator: TA100, Metabolic Activation: RAT, LIVER, S-9, AROCLOR 1254, Method: STANDARD PLATE active; positive | Test System: AMES SALMONELLA TYPHIMURIUM, Strain/Indicator: TA1537, Metabolic Activation: HAMSTER, LIVER, S-9, AROCLOR 1254, Method: STANDARD PLATE active; positive | Test System: AMES SALMONELLA TYPHIMURIUM, Strain/Indicator: TA1537, Metabolic Activation: RAT, LIVER, S-9, AROCLOR 1254, Method: STANDARD PLATE active; positive | Test System: AMES SALMONELLA TYPHIMURIUM, Strain/Indicator: TA1538, Metabolic Activation: HAMSTER, LIVER, S-9, AROCLOR 1254, Method: STANDARD PLATE active; positive | Test System: AMES SALMONELLA TYPHIMURIUM, Strain/Indicator: TA1538, Metabolic Activation: RAT, LIVER, S-9, AROCLOR 1254, Method: STANDARD PLATE active; positive | Test System: MOUSE LYMPHOMA, Strain/Indicator: L5178Y (TK+/TK-), Metabolic Activation: NONE, Method: SUSPENSION/PLATE active; positive. reevaluation of results: positive | Test System: MOUSE LYMPHOMA, Strain/Indicator: L5178Y (TK+/TK-), Metabolic Activation: RAT, LIVER, S-9, AROCLOR 1254, Method: SUSPENSION/PLATE active; positive. reevaluation of results: positive
inactive: Test System: AMES SALMONELLA TYPHIMURIUM, Strain/Indicator: 1537, Metabolic Activation: NONE, Method: STANDARD PLATE inactive; negative | Test System: AMES SALMONELLA TYPHIMURIUM, Strain/Indicator: TA98, Metabolic Activation: NONE, Method: STANDARD PLATE inactive; negative | Test System: AMES SALMONELLA TYPHIMURIUM, Strain/Indicator: TA100, Metabolic Activation: NONE, Method: STANDARD PLATE inactive; negative | Test System: AMES SALMONELLA TYPHIMURIUM, Strain/Indicator: TA1535, Metabolic Activation: HAMSTER, LIVER, S-9, AROCLOR 1254, Method: STANDARD PLATE inactive; negative | Test System: AMES SALMONELLA TYPHIMURIUM, Strain/Indicator: TA1535, Metabolic Activation: RAT, LIVER, S-9, AROCLOR 1254, Method: STANDARD PLATE inactive; negative | Test System: AMES SALMONELLA TYPHIMURIUM, Strain/Indicator: TA1538, Metabolic Activation: NONE, Method: STANDARD PLATE inactive; negative
